Data: ChEMBL document CHEMBL1201862, “PubChem BioAssay data set” (2004)
Activity calls are given as the source filed them.

Experiments:
HEK293 [1] = assay: SAR Analysis of small molecule inhibitors of B-cell specific antigen receptor-induced NF-kB activation in a HEK-293T cell line using a luminescence assay - Set 2. [Related pubchem assays (depositor defined):AID435022, AID435025, AID489021]; assay type: functional, cell-based; details: Homo sapiens
HEK293 [2] = assay: HEK293T cell viability loss, resazurin readout – resazurin fluorescence, cytotoxicity control for NF-kB activator project, SAR follow-up (AID 493251); assay type: functional, cell-based; details: Homo sapiens
Jurkat = assay: SAR Analysis of small molecule inhibitors of […] specific antigen receptor-induced NF-kB activation in a Jurkat cell line using a luminescence assay - Set 3. [Related pubchem assays (depositor defined):AID435022, AID435025, AID465]; assay type: functional, cell-based; details: Homo sapiens
Tumor necrosis factor = Tumor necrosis factor (Homo sapiens, UniProt P01375); assay: analog potency on TNFa NF-kB signaling – cell-based, revised, SAR follow-up (AID 2337); assay type: functional
Sequence of Tumor necrosis factor (P01375 whole entry): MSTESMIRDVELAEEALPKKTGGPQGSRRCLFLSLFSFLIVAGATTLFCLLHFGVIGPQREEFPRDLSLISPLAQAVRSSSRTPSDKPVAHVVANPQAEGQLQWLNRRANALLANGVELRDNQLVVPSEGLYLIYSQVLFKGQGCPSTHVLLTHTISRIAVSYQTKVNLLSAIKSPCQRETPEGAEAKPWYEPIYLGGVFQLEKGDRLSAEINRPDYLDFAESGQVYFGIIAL

[3] = target: T1, Type-1 angiotensin II receptor (Homo sapiens, UniProt P30556); assay: antagonism of angiotensin II type 1 receptor – cell-based, uHTS hits, selectivity assay for APJ receptor antagonist project, dose response (AID 463214); assay type: functional;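 also: antagonist potency against angiotensin II stimulated AT1 response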
T1 sequence (P30556 whole entry): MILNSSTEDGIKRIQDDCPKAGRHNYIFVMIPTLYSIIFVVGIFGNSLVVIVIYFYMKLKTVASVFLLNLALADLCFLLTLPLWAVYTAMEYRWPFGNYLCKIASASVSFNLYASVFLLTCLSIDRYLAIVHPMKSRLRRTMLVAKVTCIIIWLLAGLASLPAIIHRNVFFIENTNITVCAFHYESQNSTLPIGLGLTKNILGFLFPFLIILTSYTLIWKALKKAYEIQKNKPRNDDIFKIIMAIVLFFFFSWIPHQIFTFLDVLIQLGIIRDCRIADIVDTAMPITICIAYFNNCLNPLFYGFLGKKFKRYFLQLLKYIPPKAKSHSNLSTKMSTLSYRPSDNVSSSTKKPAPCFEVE

[4] = target: T2, Nucleotide-binding oligomerization domain-containing protein 2 (Homo sapiens, UniProt Q9HC29); assay: inhibition of NOD2-driven NF-kB reporter – cell-based, luminescence, uHTS, HEK293 (AID 1566); assay type: functional
T2 sequence (Q9HC29 whole entry, the tested form may be a part): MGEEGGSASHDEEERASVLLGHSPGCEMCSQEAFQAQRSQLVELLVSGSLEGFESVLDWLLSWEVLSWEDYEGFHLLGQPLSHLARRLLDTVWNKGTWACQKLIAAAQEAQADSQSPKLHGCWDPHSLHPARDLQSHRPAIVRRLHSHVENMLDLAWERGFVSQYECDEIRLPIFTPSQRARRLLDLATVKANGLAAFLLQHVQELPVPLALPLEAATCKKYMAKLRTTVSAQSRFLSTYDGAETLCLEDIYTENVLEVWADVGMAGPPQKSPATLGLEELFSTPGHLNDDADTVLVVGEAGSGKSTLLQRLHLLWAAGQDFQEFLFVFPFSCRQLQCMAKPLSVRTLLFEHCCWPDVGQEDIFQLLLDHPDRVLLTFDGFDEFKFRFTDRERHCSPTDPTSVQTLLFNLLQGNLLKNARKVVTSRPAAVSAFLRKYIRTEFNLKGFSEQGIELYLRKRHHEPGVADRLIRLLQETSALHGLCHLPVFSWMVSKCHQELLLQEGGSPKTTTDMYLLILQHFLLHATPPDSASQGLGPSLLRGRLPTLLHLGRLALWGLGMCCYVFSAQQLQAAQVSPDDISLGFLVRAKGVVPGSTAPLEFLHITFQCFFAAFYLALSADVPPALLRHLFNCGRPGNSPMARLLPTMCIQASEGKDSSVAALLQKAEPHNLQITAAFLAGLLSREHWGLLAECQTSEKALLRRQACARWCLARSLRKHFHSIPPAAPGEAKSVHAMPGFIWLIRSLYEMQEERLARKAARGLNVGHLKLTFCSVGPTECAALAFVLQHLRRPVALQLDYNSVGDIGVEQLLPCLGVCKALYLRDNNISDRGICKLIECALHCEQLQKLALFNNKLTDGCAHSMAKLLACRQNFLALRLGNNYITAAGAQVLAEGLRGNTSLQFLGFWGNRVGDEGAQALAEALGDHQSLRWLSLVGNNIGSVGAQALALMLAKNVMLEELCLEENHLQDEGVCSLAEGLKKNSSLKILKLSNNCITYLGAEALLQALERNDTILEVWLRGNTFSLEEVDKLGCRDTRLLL

[5] = target: T2, Nucleotide-binding oligomerization domain-containing protein 2; assay: PubChem AID 2334; assay type: functional
[6] = target: T3, Nucleotide-binding oligomerization domain-containing protein 1 (Homo sapiens, UniProt Q9Y239); assay: blockers of NOD1 pathway activity – revised, SAR follow-up (AID 2333); assay type: functional
T3 sequence (Q9Y239 whole entry): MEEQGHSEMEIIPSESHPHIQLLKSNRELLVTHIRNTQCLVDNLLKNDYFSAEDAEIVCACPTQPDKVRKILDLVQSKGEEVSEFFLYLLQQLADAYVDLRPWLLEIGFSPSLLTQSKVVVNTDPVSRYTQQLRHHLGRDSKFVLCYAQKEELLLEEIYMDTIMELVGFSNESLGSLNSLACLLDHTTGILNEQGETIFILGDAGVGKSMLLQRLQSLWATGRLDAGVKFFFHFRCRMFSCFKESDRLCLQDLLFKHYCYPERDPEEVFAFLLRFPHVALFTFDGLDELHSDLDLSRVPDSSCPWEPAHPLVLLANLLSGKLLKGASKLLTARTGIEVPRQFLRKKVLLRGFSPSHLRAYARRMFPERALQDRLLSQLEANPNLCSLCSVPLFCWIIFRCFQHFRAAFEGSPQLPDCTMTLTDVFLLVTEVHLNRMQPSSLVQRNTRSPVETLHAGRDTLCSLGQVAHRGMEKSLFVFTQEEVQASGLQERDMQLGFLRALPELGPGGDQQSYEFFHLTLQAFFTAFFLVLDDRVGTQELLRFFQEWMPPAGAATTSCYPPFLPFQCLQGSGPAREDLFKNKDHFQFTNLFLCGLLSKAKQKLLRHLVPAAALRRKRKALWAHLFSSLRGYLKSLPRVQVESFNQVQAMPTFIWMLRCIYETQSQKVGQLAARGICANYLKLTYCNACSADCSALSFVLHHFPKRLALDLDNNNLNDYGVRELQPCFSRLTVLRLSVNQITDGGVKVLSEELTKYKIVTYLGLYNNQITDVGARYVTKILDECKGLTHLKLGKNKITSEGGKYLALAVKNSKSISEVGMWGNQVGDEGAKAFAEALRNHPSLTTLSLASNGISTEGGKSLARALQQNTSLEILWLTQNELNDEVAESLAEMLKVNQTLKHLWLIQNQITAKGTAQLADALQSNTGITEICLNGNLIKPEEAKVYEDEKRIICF

Beta-galactosidase = Beta-galactosidase (Escherichia coli, UniProt Q8VNN2); assay: PubChem AID 485352; assay type: functional
Sequence of Beta-galactosidase (Q8VNN2 whole entry, the tested form may be a part): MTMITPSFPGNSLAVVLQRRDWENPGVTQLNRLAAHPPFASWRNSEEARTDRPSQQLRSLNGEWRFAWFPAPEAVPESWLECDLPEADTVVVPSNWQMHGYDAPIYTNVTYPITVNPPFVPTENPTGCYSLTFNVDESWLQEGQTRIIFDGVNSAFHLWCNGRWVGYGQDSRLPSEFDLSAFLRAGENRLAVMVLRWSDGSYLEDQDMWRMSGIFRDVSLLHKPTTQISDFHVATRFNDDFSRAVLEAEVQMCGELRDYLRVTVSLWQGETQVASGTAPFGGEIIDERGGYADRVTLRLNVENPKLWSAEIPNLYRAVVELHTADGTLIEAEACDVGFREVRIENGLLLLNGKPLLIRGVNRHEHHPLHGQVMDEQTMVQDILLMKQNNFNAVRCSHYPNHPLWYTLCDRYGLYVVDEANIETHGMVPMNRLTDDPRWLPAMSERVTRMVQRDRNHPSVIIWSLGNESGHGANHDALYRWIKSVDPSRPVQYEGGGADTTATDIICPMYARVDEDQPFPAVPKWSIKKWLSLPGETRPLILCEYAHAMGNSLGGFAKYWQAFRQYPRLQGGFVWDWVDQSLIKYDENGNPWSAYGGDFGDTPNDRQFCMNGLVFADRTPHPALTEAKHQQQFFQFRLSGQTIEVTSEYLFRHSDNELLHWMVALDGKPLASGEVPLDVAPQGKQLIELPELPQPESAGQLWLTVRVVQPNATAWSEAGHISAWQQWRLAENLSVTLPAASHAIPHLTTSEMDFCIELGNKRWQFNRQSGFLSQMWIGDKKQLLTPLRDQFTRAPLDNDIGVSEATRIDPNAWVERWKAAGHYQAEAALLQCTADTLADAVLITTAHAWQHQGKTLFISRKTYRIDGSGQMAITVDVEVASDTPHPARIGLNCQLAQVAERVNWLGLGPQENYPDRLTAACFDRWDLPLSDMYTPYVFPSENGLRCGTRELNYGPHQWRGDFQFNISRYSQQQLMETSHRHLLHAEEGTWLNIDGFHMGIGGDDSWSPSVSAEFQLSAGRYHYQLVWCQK

[7] = target: T4, Oxysterols receptor LXR-beta (Homo sapiens, UniProt P55055); assay type: functional, cell-based;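 also: Cell-based luminescence dose-response assay of agonist activity at LXR, run as a confirmatory counterscreen to a daf-12 agonist screen; HEK293 cells with Gal4-LXR fusion and GAL4-driven luciferase reporter; agonist potency from rising luciferase signal of a Gal4-LXR reporter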
T4 sequence (P55055 whole entry): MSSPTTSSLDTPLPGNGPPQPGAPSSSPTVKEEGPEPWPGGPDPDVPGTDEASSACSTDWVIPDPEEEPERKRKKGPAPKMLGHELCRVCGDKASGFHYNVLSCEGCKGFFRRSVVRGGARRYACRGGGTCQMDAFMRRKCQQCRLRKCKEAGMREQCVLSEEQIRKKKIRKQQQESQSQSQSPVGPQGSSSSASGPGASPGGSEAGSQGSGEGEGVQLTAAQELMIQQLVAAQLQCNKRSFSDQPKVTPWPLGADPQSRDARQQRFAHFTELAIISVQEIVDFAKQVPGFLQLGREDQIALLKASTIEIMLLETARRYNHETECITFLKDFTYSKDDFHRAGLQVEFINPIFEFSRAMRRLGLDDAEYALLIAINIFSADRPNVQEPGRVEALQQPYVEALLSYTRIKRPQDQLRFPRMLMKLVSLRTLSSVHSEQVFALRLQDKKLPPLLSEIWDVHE

HEK293 [8] = assay: cells; assay type: functional, cell-based; details: Homo sapiens
[9] = target: T5, Nuclear receptor subfamily 0 group B member 1 (Homo sapiens, UniProt P51843); assay: Luminescence-based cell-based high throughput dose response assay for inhibitors of the orphan nuclear receptor subfamily 0, group B, member 1 (DAX1; NR0B1). [Related pubchem assays (depositor defined):AID504766, AID504790]; assay type: functional
T5 sequence (P51843 whole entry): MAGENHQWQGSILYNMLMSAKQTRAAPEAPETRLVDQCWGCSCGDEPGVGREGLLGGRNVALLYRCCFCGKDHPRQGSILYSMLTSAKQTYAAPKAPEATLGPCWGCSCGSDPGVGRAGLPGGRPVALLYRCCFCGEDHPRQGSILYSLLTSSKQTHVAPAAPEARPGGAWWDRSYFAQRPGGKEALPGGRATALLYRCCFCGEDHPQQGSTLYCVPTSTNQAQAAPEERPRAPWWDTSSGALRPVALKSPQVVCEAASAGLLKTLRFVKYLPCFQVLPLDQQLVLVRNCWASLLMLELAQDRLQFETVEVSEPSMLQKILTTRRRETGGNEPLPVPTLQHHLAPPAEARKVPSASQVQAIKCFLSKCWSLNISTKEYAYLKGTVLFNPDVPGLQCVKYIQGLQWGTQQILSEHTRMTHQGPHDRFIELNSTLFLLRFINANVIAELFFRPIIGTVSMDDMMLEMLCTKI

[10] = target: ATP-dependent molecular chaperone HSP82 (Candida albicans (strain WO-1) (Yeast), UniProt C4YTQ8); assay: steroid-induced GRE reporter decrease in yeast – S. cerevisiae, luminescence, Hsp90 inhibitor project, dose response (AID 2400); assay type: functional, cell-based;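 also: beta-galactosidase luminescence from glucocorticoid response element reporter as proxy for Hsp90 function; inhibitor potency where signal loss means Hsp90 inhibition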
Sequence of ATP-dependent molecular chaperone HSP82 (C4YTQ8 whole entry): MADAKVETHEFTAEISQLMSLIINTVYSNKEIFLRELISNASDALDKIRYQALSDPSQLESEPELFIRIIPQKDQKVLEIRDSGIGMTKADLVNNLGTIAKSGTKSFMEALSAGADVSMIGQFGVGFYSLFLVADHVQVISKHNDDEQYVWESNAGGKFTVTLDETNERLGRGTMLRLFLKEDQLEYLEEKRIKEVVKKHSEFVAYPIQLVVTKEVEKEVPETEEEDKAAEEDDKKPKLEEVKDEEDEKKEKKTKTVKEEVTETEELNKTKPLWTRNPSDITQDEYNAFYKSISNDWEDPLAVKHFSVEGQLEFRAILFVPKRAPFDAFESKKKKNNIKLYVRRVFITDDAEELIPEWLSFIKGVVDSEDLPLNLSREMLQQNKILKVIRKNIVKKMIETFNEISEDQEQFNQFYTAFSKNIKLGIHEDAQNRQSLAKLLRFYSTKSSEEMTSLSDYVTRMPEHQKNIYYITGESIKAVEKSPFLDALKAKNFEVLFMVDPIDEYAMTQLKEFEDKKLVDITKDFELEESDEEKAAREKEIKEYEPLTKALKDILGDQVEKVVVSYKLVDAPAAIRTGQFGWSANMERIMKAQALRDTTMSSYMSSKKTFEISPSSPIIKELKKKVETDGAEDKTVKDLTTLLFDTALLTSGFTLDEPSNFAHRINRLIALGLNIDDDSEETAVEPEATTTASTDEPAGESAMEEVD

[11] = fluconazole-exposed Candida albicans growth modulators – fluorescence, retest, confirmation (AID 2467); assay type: functional, cell-based
[12] = target: T6, Serine/threonine-protein phosphatase (Candida dubliniensis (strain CD36 / CBS 7987 / NCPF 3949 / NRRLY-17841) (Yeast), UniProt B9W6M3); assay: blockers of CaCl2-induced CDRE-lacZ signaling – S. cerevisiae, luminescence, secondary, dose response (AID 2388); assay type: functional, cell-based;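 also: yeast reporter cells carrying a calcineurin-responsive lacZ construct stimulated with calcium chloride; luminescent beta-galactosidase reporter signal in whole cells rather than isolated phosphatase activity; potency for inhibition where a drop in reporter signal means calcineurin blockade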
T6 sequence (B9W6M3 whole entry): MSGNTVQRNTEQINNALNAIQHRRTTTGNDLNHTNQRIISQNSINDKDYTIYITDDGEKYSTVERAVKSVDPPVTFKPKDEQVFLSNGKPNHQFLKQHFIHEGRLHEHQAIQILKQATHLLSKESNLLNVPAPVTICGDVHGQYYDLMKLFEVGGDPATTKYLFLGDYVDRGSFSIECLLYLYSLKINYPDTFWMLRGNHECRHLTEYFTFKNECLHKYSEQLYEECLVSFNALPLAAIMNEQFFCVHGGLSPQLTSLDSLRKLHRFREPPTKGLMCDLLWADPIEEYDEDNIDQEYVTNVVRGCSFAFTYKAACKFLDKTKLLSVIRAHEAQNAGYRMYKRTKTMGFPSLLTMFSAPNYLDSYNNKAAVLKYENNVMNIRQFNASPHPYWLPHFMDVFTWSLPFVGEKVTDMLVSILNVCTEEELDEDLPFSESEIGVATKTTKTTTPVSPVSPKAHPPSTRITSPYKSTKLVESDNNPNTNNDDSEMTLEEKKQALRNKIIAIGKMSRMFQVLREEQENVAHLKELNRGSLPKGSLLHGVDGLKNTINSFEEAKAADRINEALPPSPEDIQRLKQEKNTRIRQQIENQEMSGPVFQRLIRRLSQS

[13] = NIH-3T3 fibroblast cytotoxicity, dose response, cytotoxicity control, cell-based, fluorescence, Alamar Blue, secondary assay (AID 2327); assay type: functional;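 also: NIH-3T3 mouse fibroblasts cultured with fluconazole at 8 µg/mL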
[14] = target: T7, RNA-binding protein pos-1 (Caenorhabditis elegans, UniProt G5EF15); assay: disruptors of C. elegans POS-1 RNA interaction – biochemical, fluorescence polarization, dose response (AID 1964);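 also: purified POS-1 fused to maltose binding protein made in E. coli; potency of compounds blocking POS-1 binding to fluorescent RNA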
T7 sequence (G5EF15 whole entry): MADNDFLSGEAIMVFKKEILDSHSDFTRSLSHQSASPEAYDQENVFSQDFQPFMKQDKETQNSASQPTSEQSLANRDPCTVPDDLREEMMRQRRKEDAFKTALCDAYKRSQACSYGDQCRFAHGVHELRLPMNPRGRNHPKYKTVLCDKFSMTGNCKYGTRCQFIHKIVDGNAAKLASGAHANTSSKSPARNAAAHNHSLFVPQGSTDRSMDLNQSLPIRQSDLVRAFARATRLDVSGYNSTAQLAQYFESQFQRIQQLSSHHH

[15] = target: T8, Zinc finger protein mex-5 (Caenorhabditis elegans, UniProt Q9XUB2); assay: potency of MEX-5 RNA-binding blockers – biochemical, C. elegans, fluorescence polarization, dose response (AID 1960)
T8 sequence (Q9XUB2 whole entry): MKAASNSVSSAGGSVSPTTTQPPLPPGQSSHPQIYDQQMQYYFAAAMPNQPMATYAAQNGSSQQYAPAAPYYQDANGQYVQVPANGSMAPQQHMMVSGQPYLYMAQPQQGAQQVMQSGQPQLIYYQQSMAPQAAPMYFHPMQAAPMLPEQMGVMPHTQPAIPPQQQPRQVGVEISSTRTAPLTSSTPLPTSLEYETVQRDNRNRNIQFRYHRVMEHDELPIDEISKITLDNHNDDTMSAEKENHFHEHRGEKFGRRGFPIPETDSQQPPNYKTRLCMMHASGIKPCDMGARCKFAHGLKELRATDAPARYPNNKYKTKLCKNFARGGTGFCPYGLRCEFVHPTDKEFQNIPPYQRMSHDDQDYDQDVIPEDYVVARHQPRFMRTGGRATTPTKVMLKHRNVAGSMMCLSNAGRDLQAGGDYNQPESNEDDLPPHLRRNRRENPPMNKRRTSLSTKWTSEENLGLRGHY

In the case of `CCOc1ccc(-c2nc(CSCC(=O)NCCc3ccc(C)cc3)c(C)o2)cc1`, the IC50 (HEK293 [1]) is reported as 40.2 µM (inactive), the IC50 (HEK293 [2]) is reported as > 80 µM (inactive) and the IC50 (Jurkat) is reported as 49.8 µM (inactive).

For `Fc1ccc(NC(=S)Nc2nccs2)cc1`, the IC50 (Tumor necrosis factor) was > 20 µM (inactive), the IC50 [3] was 25.2 µM (not active) and the EC50 [4] was > 20 µM (inactive). The IC50 [5] was > 20 µM (inactive), the IC50 [6] was > 20 µM (inactive) and the EC50 (Beta-galactosidase) was > 40 µM (inactive).

In the case of `Cc1ccc(-c2cc(-c3ccc(F)cc3)[nH]n2)c(O)c1`, the EC50 [7] is reported as > 67.5 µM (inactive), the IC50 (HEK293 [8]) is reported as > 67.5 µM (inactive) and the EC50 (cells) is reported as > 67.5 µM (inactive). For the same molecule, the IC50 [9] was > 67.5 µM (inactive).

In the case of `CC(C)(C)c1ccc(-c2noc(CCC(=O)Nc3cccc([N+](=O)[O-])c3)n2)cc1`, the IC50 (HEK293 [1]) is reported as 3.73 µM (active), the IC50 (HEK293 [2]) is reported as 22.1 µM (inactive) and the IC50 (Jurkat) is reported as 60.7 µM (inactive).

For `CCC(C)c1ccc(O)c(NC(=S)NC(=O)c2cccnc2)c1` (stereo unspecified), the EC50 [10] was 48.9 µM (active), the EC50 [11] was 632 nM (active) and the EC50 [12] was > 180 µM (inactive). The IC50 [3] was 14 µM (active), the EC50 [13] was > 150 µM (inactive) and the EC50 (Beta-galactosidase) was > 40 µM (inactive).

For `Fc1ccc(-c2nc3c(Cl)cc(C(F)(F)F)cn3c2Cl)cc1`, the IC50 (HEK293 [8]) was > 67.6 µM (inactive), the IC50 [9] was > 67.6 µM (inactive) and the EC50 [14] was 41.6 µM (active). The EC50 [15] was 37.1 µM (active).
